We go through 2 molecules from patent publication US10342881B2, “Manganese-oxo clusters as contrast agents for magnetic resonance imaging” (Georgetown University, priority 2008, dated 2019).

For data set [1] the following is noted: tissues outside of liver and kidney; cited from earlier work.
Data set [2] in a line: Solubility and stability of Mn-12 in water and aqueous acetic acid. The format is physicochemical. The source says: Based on simple criteria, Mn-12 appears ideal as a contrast agent.
Data set [3] in a line: NMR relaxivity from slope of 1/T1 or 1/T2 versus concentration. Type of data set: physicochemical. To be noted: for r1 / r2: D2O and dilute acetic acid, 500 MHz. Here is the method: Fresh samples for NMR measurements were prepared immediately prior to use. Both the cluster and cluster coated beads were dissolved in distilled water, and filtered via syringe filter. T1 measurements were measured using the inversion recovery pulse sequence, in a field of 300 MHz or 500 MHz, at room temperature with a least squares fit to 10 data points. The T2 was obtained using a conventional spin echo sequence on a 300 MHz spectrometer and using Carr-Purcell-Meiboom-Gill (CPMG) sequence on 500 MHz Bruker spectrometer. Relaxivity was determined from the slope of a plot of 1/T1 or 1/T2 versus concentration of Mn-12 and Mn-12 coated beads. The cluster concentration was determined by atomic absorption of Mn.

Where [4] appears, read: RT, per mM cluster, listed as Mn-12.

As to `Cc1[nH+]cc(COP(=O)([O-])[O-])c(CN(CCN(CC(=O)[O-])Cc2c(COP(=O)([O-])O)c[nH+]c(C)c2O)CC(=O)[O-])c1O.[Mn].[Na+].[Na+].[Na+]` [Mn-DPDP, manganese dipyrodoxaldiphosphate], the “effect on T1 and T2 in tissues” value in data set [1] was “only limited effect on T1 and T2”.
On to “[Mn12O12(O2CCH3)16 (H2O)4] [Mn12O12Ac16]”, for which the “stability in presence of excess carboxylic acid” value in data set [2] (aqueous acetic acid solutions, re-isolated after many hours) is “stable in aqueous acetic acid solutions”. For the same molecule, the “behaviour upon dissolution in distilled water” value in data set [2] (distilled water) is “within minutes a flocculent material forms”. Further, the “temperature dependence of relaxivity” value in data set [3] (37° C. versus room temperature) is reported as “decreased at higher temperatures”. The r1 in data set [3] (37° C.) is 2.7 ± 0.1 mM⁻¹ s⁻¹; in data set [3] (RT, per mM cluster), 3.0 ± 0.1 mM⁻¹ s⁻¹; in data set [3] (setting [4]), 3.0 ± 0.1 mM⁻¹ s⁻¹. In addition, the r2 in data set [3] (37° C.) turned out to be 34 ± 1 mM⁻¹ s⁻¹; in data set [3] (RT, per mM cluster) it was 48 ± 1 mM⁻¹ s⁻¹; in data set [3] (setting [4]), 48 ± 1 mM⁻¹ s⁻¹. Besides, in data set [3] (measurements at 300, 400, and 500 MHz), the “field dependence of relaxivity” value is given as “increase with higher fields”.
